As usually defined, the IC50 is the concentration at which inhibition is half-maximal.

The test system of the test is Aβ production in SK-N-BE(2) neuroblastoma cells. As to the kind of experiment: Test Example 3: Aβ production inhibition in cell (Aβ40 ELISA, SK-N-BE(2)). Particulars: Homo sapiens, SKNBE2, 6 h, read-out: Test Example 3 IC50, SK-N-BE(2) cells, 6 hours, Aβ40 ELISA normalized by viability. (In general: An ELISA detects its analyte on a solid surface through an enzyme-linked reagent.)
As to `NC1=NC2(CO1)c1cc(-c3cncnc3)ccc1OCC21CCCO1` (stereo not shown) [RP 97], the IC50 was 2600 nM.

As for `NC1=NC2(CO1)c1cc(-c3cncc(C(F)(F)F)c3)ccc1OC1(CCC1)C21COC1` (stereo not shown) [RP 99], the IC50 was determined as 1900 nM.

On to `NC1=NC2(CO1)c1cc(-c3cncnc3)ccc1OCC21CC1` (stereo not shown) [RP 100], for which the IC50 is 250 nM.

For `NC1=NC2(CO1)c1cc(-c3cncnc3)c(F)cc1OCC21CC1` (stereo not shown) [RP 102], the IC50 is 240 nM.

Regarding `NC1=NC2(CO1)c1cc(-c3cccnc3F)ccc1OCC21CC1` (stereo not shown) [RP 103], the IC50 was 450 nM.

For `COc1cncc(-c2ccc3c(c2)C2(COC(N)=N2)C2(CC2)CO3)c1` (stereo not shown) [RP 105], the IC50 amounted to 340 nM.

As for `CCOc1cncc(-c2ccc3c(c2)C2(COC(N)=N2)C2(CC2)CO3)c1` (stereo not shown) [RP 106], the 50% inhibitory concentration (IC50) came out at 160 nM.

Regarding `NC1=NC2(CO1)c1cc(-c3cncc(Cl)c3)ccc1OCC21CC1` (stereo not shown) [RP 107], the IC50 was 460 nM.

As to `CC#Cc1cncc(-c2ccc3c(c2)C2(COC(N)=N2)C2(COC2)C2(CCC2)O3)c1` (stereo not shown) [RP 109], the IC50 turned out to be 48 nM.

`CC#Cc1cncc(-c2ccc3c(c2)C2(COC(N)=N2)C2(COC2)C(C)(C)O3)c1` (stereo not shown) [RP 110]: the IC50 is 9.2 nM.

Turning to `CC#Cc1cncc(-c2ccc3c(c2)C2(COC(N)=N2)C2(CC2)CO3)c1` (stereo not shown) [RP 111], the IC50 came to 140 nM.

Consider `CC#Cc1cncc(-c2cc3c(cc2F)OCC2(CC2)C32COC(N)=N2)c1` (stereo not shown) [RP 112], for which the IC50 worked out at 660 nM.

For the compound `CC#Cc1cncc(-c2ccc3c(c2)C2(COC(N)=N2)C2(CCC2)CO3)c1` (stereo not shown) [RP 113], the IC50 was 470 nM.

With `N#Cc1ncccc1-c1ccc2c(c1)C1(COC(N)=N1)C1(COC1)C1(CCC1)O2` (stereo not shown) [RP 115, 3-(2″-aminotrispiro[cyclobutane-1,2′-chromene-4′,4″-[1,3]oxazole-3′,3′″-oxetan]-6′-yl)pyridine-2-carbonitrile], the IC50 was 1100 nM.

`NC1=NC2(CO1)c1cc(-c3cncc(C(F)F)c3)ccc1OC1(CCC1)C21COC1` (stereo not shown) [RP 118]: the IC50 came to 990 nM.

Consider `N#Cc1cncc(-c2ccc3c(c2)C2(COC(N)=N2)C2(COC2)C2(CCC2)O3)c1` (stereo not shown) [RP 120], for which the concentration for half-maximal inhibition (IC50) is 2300 nM.

For `COc1cc(-c2ccc3c(c2)C2(COC(N)=N2)C2(COC2)C2(CCC2)O3)c(F)cn1` (stereo not shown) [RP 122], the IC50 was found to be 1100 nM.

As to `NC1=NC2(CO1)c1cc(-c3cccc(F)c3)ccc1OC1(CCC1)C21COC1` (stereo not shown) [RP 125], the IC50 was found to be 580 nM.

In the case of `COc1cccc(-c2ccc3c(c2)C2(COC(N)=N2)C2(COC2)C2(CCC2)O3)c1` (stereo not shown) [RP 126], the IC50 was determined as 1200 nM.

In the case of `Cc1cccc(-c2ccc3c(c2)C2(COC(N)=N2)C2(COC2)C2(CCC2)O3)c1` (stereo not shown) [RP 127], the IC50 was 1800 nM.

For the compound `N#Cc1cccc(-c2ccc3c(c2)C2(COC(N)=N2)C2(COC2)C2(CCC2)O3)c1` (stereo not shown) [RP 128], the IC50 is 1500 nM.

Regarding `CCOc1cc(-c2ccc3c(c2)C2(COC(N)=N2)C2(COC2)C2(CCC2)O3)cc(C(F)(F)F)c1` (stereo not shown) [RP 129], the IC50 came to 7300 nM.

Consider `NC1=NC2(CO1)c1cc(-c3cc(F)ccc3F)ccc1OC1(CCC1)C21COC1` (stereo not shown) [RP 130], for which the IC50 came out at 1700 nM.

Regarding `CCOc1cccc(-c2ccc3c(c2)C2(COC(N)=N2)C2(COC2)C2(CCC2)O3)c1` (stereo not shown) [RP 131], the IC50 came out at 3200 nM.

On to `N#C/C=C/c1cccc(-c2ccc3c(c2)C2(COC(N)=N2)C2(COC2)C2(CCC2)O3)c1` (stereo not shown) [RP 132], for which the IC50 is 1200 nM.

As to `CCOc1cc(F)cc(-c2ccc3c(c2)C2(COC(N)=N2)C2(COC2)C2(CCC2)O3)c1` (stereo not shown) [RP 133], the IC50 was 2800 nM.

Consider `NC1=NC2(CO1)c1cc(C3=CCCCC3)ccc1OC1(CCC1)C21COC1` (stereo not shown) [RP 135], for which the 50% inhibitory concentration (IC50) stood at 1800 nM.

Regarding `COc1ccc(F)c(-c2ccc3c(c2)C2(COC(N)=N2)C2(COC2)C2(CCC2)O3)c1` (stereo not shown) [RP 136, 6′-(2-fluoro-5-methoxyphenyl)trispiro[cyclobutane-1,2′-chromene-4′,4″-[1,3]oxazole-3′,3′″-oxetan]-2″-amine], the IC50 is 660 nM.

As for `COc1cccc(-c2ccc3c(c2)C2(COC(N)=N2)C2(COC2)C2(CCC2)O3)c1F` (stereo not shown) [RP 137], the IC50 was determined as 830 nM.

For `NC1=NC2(CO1)c1cc(-c3cccc(F)c3F)ccc1OC1(CCC1)C21COC1` (stereo not shown) [RP 138], the IC50 was 1500 nM.

As to `CC1(C)Oc2ccc(-c3cccc(Cl)c3)cc2C2(COC(N)=N2)C12COC2` (stereo not shown) [RP 139], the IC50 came out at 140 nM.

Consider `CC1(C)Oc2ccc(-c3cccc(C4CC4)c3)cc2C2(COC(N)=N2)C12COC2` (stereo not shown) [RP 140], for which the IC50 was determined as 410 nM.

Turning to `CC1(C)Oc2ccc(-c3cccc(C(F)(F)F)c3)cc2C2(COC(N)=N2)C12COC2` (stereo not shown) [RP 141], the IC50 was 1300 nM.

Regarding `COc1cccc(-c2ccc3c(c2)C2(COC(N)=N2)C2(COC2)C(C)(C)O3)c1` (stereo not shown) [RP 142], the IC50 turned out to be 150 nM.

With `CCOc1cccc(-c2ccc3c(c2)C2(COC(N)=N2)C2(COC2)C(C)(C)O3)c1` (stereo not shown) [RP 144], the IC50 is 460 nM.

For `CC1(C)Oc2ccc(-c3cc(F)cc(Cl)c3)cc2C2(COC(N)=N2)C12COC2` (stereo not shown) [RP 146, 6′-(3-chloro-5-fluorophenyl)-2′,2′-dimethyldispiro[1,3-oxazole-4,4′-chromene-3′,3″-oxetan]-2-amine], the IC50 came to 210 nM.

Regarding `CC1(C)Oc2ccc(-c3cc(F)cc(F)c3)cc2C2(COC(N)=N2)C12COC2` (stereo not shown) [RP 147], the IC50 was 170 nM.

As for `Cc1cc(F)cc(-c2ccc3c(c2)C2(COC(N)=N2)C2(COC2)C(C)(C)O3)c1` (stereo not shown) [RP 148], the IC50 is 480 nM.

For the compound `CC1(C)Oc2ccc(-c3cc(F)ccn3)cc2C2(COC(N)=N2)C12COC2` (stereo not shown) [RP 149], the IC50 stood at 1100 nM.

As for `CC1(C)Oc2ccc(-c3cncc(Cl)n3)cc2C2(COC(N)=N2)C12COC2` (stereo not shown) [RP 150], the IC50 was 450 nM.

In the case of `Cc1cnc(Cl)c(-c2ccc3c(c2)C2(COC(N)=N2)C2(COC2)C(C)(C)O3)c1` (stereo not shown) [RP 151], the IC50 came to 280 nM.

Turning to `CC1(C)Oc2ccc(-c3cc(Cl)cnc3Cl)cc2C2(COC(N)=N2)C12COC2` (stereo not shown) [RP 152], the IC50 is 110 nM.

Regarding `CC1(C)Oc2ccc(-c3cc(F)cnc3Cl)cc2C2(COC(N)=N2)C12COC2` (stereo not shown) [RP 153], the IC50 amounted to 130 nM.

Regarding `CC1(C)Oc2ccc(-c3cc(Cl)cnc3F)cc2C2(COC(N)=N2)C12COC2` (stereo not shown) [RP 154], the IC50 came to 32 nM.

As for `COc1ncc(Cl)cc1-c1ccc2c(c1)C1(COC(N)=N1)C1(COC1)C(C)(C)O2` (stereo not shown) [RP 155], the IC50 is 630 nM.

For the compound `CC1(C)Oc2ccc(-c3cccnc3Cl)cc2C2(COC(N)=N2)C12COC2` (stereo not shown) [RP 156], the IC50 is 180 nM.

Take `Cc1cc(-c2ccc3c(c2)C2(COC(N)=N2)C2(COC2)C(C)(C)O3)cnc1F` (stereo not shown) [RP 157]: the IC50 stood at 660 nM.

Take `CC1(C)Oc2ccc(-c3cc(F)ncc3Cl)cc2C2(COC(N)=N2)C12COC2` (stereo not shown) [RP 158]: the IC50 stood at 370 nM.

As to `CC1(C)Oc2ccc(-c3cnc4[nH]ccc4c3)cc2C2(COC(N)=N2)C12COC2` (stereo not shown) [RP 168], the IC50 came to 310 nM.

With `CC1(C)Oc2ccc(-c3cc(C#N)ccc3F)cc2C2(COC(N)=N2)C12COC2` (stereo not shown) [RP 170], the IC50 was determined as 400 nM.

For the compound `CNC(=O)c1cc(F)cc(-c2ccc3c(c2)C2(COC(N)=N2)C2(COC2)C(C)(C)O3)c1` (stereo not shown) [RP 171], the IC50 stood at 3100 nM.

With `CC1(C)Oc2ccc(-c3cncc(Cl)c3)cc2C2(COC(N)=N2)C12COC2` (stereo not shown) [RP 173], the IC50 turned out to be 73 nM.

The values are drawn from patent US9242973B2, “Chromane compounds” (CoMentis, Inc., priority 2012, dated 2016).
